Key:
Format in all cases: in vivo
[1] = test system: barnyardgrass (Echinochloa crus-galli); assay: Test A preemergence, visual injury rating
Procedure, shortened: (§1)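 Visual 0–100 rating (100 = complete control) taken about 10 d post-treatment relative to untreated checks. Preemergence: directed soil spray on sown loam/sand pots. Postemergence: seedlings 2–10 cm, 1–2 leaf. Non-phytotoxic solvent formulation with surfactant.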

kochia (Kochia scoparia) [2] = assay: Test A preemergence, visual injury rating
Procedure, shortened: as §1

[3] = test system: blackgrass (Alopecurus myosuroides); assay: Test C postemergence, plant response rating; settings: for Plant response rating, Blackgrass: scale 0 to 100; for Blackgrass plant response rating: scale 0 to 100 (0 no effect, 100 complete control)
Excerpt: (§2) Seeds of plant species selected from blackgrass (Alopecurus myosuroides), ryegrass, Italian (Italian ryegrass, Lolium multiflorum), wheat (winter wheat, Triticum aestivum), galium (catchweed bedstraw, Galium aparine), corn (Zea mays), crabgrass, large (large crabgrass, Digitaria sanguinalis), foxtail, giant (giant foxtail, Setaria faberii), johnsongrass (Sorghum halepense), lambsquarters (Chenopodium album), morningglory (Ipomoea coccinea), nutsedge, yellow (yellow nutsedge, Cyperus esculentus), pigweed (Amaranthus retroflexus), ragweed (common ragweed, Ambrosia elatior), soybean (Glycine max), barnyardgrass (Echinochloa crus-galli), oilseed rape (Brassica napus), pigweed, palmer (palmer pigweed, Amaranthus palmeri), waterhemp (common waterhemp, Amaranthus rudis), velvetleaf (Abutilon theophrasti), kochia (Kochia scoparia), surinam grass (Brachiaria decumbens), nightshade (eastern black nightshade, Solanum ptycanthum), wild poinsettia (Euphorbia heterophylla), windgrass (Apera spica-venti), and oat, wild (wild oat Avena fatua), were planted into a blend of loam soil and sand or a silt loam soil and treated preemergence with test chemicals formulated in a non-phytotoxic solvent mixture which included a surfactant.
(§3) At the same time, plants selected from these crop and weed species and also chickweed (common chickweed, Stellaria media), buckwheat, wild (wild buckwheat, Polygonum convolvulus), wild mustard (Sinapis arvensis), field poppy (Papaver rhoeas), field violet (Viola arvensis), geranium, cutleaf (cutleaf geranium, Geranium dissectum), Canada thistle (Cirsium arvense), and speedwell (bird's-eye speedwell, Veronica persica), were planted in pots containing Sunshine Redi-Earth® planting medium comprising spaghnum peat moss, vermiculite, starter nutrients and dolomitic limestone and treated with postemergence applications of test chemicals formulated in the same manner. Plants ranged in height from 2 to 18 cm (1- to 4-leaf stage) for postemergence treatments. Treated plants and controls were maintained in a greenhouse for 13 to 15 d, after which time all species were compared to controls and visually evaluated. Plant response ratings, summarized in Table C, are based on a scale of 0 to 100 where 0 is no effect and 100 is complete control. A dash (-) response means no test result.

[4] = test system: chickweed (common chickweed, Stellaria media); assay: Test C postemergence, plant response rating; settings: for Chickweed plant response rating: scale 0 to 100 (0 no effect, 100 complete control)
Excerpt: as §2, §3

corn (Zea mays) = assay: Test C postemergence, plant response rating; settings: for Corn plant response rating: scale 0 to 100 (0 no effect, 100 complete control)
Excerpt: as §2, §3

[5] = test system: crabgrass, large (large crabgrass, Digitaria sanguinalis); assay: Test C postemergence, plant response rating; settings: for Crabgrass, Large plant response rating: scale 0 to 100 (0 no effect, 100 complete control)
Excerpt: as §2, §3

[6] = test system: foxtail, giant (giant foxtail, Setaria faberii); assay: Test C postemergence, plant response rating; settings: for Foxtail, Giant plant response rating: scale 0 to 100 (0 no effect, 100 complete control)
Excerpt: as §2, §3

kochia (Kochia scoparia) [7] = assay: Test C postemergence, plant response rating; settings: for Kochia plant response rating: scale 0 to 100 (0 no effect, 100 complete control)
Excerpt: as §2, §3

[8] = test system: lambsquarters (Chenopodium album); assay: Test C postemergence, plant response rating; settings: for Lambsquarters plant response rating: scale 0 to 100 (0 no effect, 100 complete control)
Excerpt: as §2, §3

[9] = test system: morningglory (Ipomoea coccinea); assay: Test C postemergence, plant response rating; settings: for Morningglory plant response rating: scale 0 to 100 (0 no effect, 100 complete control)
Excerpt: as §2, §3

[10] = test system: nutsedge, yellow (yellow nutsedge, Cyperus esculentus); assay: Test C postemergence, plant response rating; settings: for Nutsedge, Yellow plant response rating: scale 0 to 100 (0 no effect, 100 complete control)
Excerpt: as §2, §3

[11] = test system: oat, wild (wild oat Avena fatua); assay: Test C postemergence, plant response rating; settings: for Oat, Wild plant response rating: scale 0 to 100 (0 no effect, 100 complete control)
Excerpt: as §2, §3

[12] = test system: oilseed rape (Brassica napus); assay: Test C postemergence, plant response rating; settings: for Oilseed Rape plant response rating: scale 0 to 100 (0 no effect, 100 complete control)
Excerpt: as §2, §3

[13] = test system: ryegrass, Italian (Italian ryegrass, Lolium multiflorum); assay: Test C postemergence, plant response rating; settings: for Ryegrass, Italian plant response rating: scale 0 to 100 (0 no effect, 100 complete control)
Excerpt: as §2, §3

soybean (Glycine max) = assay: Test C postemergence, plant response rating; settings: for Soybean plant response rating: scale 0 to 100 (0 no effect, 100 complete control)
Excerpt: as §2, §3

[14] = test system: wheat (winter wheat, Triticum aestivum); assay: Test C postemergence, plant response rating
Excerpt: as §2, §3

[15] = 31 g ai/ha, 0 to 100 scale, 0 no effect, 100 complete control
[16] = 125 g ai/ha, 0 to 100 scale (0 no effect, 100 complete control)

FC(F)(F)CCCCc1c(Br)cccc1Oc1ncc(Cl)cn1 [Compound 138]
Plant response rating, Barnyardgrass [1, 15]: 70
Plant response rating, Barnyardgrass [1, 16]: 100
Plant response rating, Kochia (kochia (Kochia scoparia) [2]; [15]): 50
Plant response rating, Kochia (kochia (Kochia scoparia) [2]; [16]): 100
Plant response rating, Blackgrass ([3]; 16 g ai/ha): 5
Plant response rating, Blackgrass ([3]; 31 g ai/ha): 35
Blackgrass plant response rating ([3]; 62 g ai/ha): 10
Blackgrass plant response rating ([3]; 125 g ai/ha): 65
Plant response rating, Chickweed ([4]; 16 g ai/ha, scale of 0 to 100): 75
Plant response rating, Chickweed ([4]; 31 g ai/ha, scale 0 to 100): 85
Chickweed plant response rating ([4]; 62 g ai/ha): 100
Chickweed plant response rating ([4]; 125 g ai/ha): 100
Plant response rating, Corn (corn (Zea mays); 16 g ai/ha, scale of 0 to 100): 15
Plant response rating, Corn (corn (Zea mays); 31 g ai/ha, scale 0 to 100): 20
Corn plant response rating (corn (Zea mays); 62 g ai/ha): 25
Corn plant response rating (corn (Zea mays); 125 g ai/ha): 30
Plant response rating, Crabgrass, Large ([5]; 16 g ai/ha, scale of 0 to 100): 35
Plant response rating, Crabgrass, Large ([5]; 31 g ai/ha, scale 0 to 100): 65
Crabgrass, Large plant response rating ([5]; 62 g ai/ha): 85
Crabgrass, Large plant response rating ([5]; 125 g ai/ha): 95
Plant response rating, Foxtail, Giant ([6]; 16 g ai/ha, scale of 0 to 100): 10
Plant response rating, Foxtail, Giant ([6]; 31 g ai/ha, scale 0 to 100): 20
Foxtail, Giant plant response rating ([6]; 62 g ai/ha): 30
Foxtail, Giant plant response rating ([6]; 125 g ai/ha): 65
Plant response rating, Kochia (kochia (Kochia scoparia) [7]; 16 g ai/ha, scale of 0 to 100): 75
Plant response rating, Kochia (kochia (Kochia scoparia) [7]; 31 g ai/ha, scale 0 to 100): 85
Kochia plant response rating (kochia (Kochia scoparia) [7]; 62 g ai/ha): 95
Kochia plant response rating (kochia (Kochia scoparia) [7]; 125 g ai/ha): 98
Plant response rating, Lambsquarters ([8]; 16 g ai/ha, scale of 0 to 100): 65
Plant response rating, Lambsquarters ([8]; 31 g ai/ha, scale 0 to 100): 90
Lambsquarters plant response rating ([8]; 62 g ai/ha): 95
Lambsquarters plant response rating ([8]; 125 g ai/ha): 100
Plant response rating, Morningglory ([9]; 16 g ai/ha, scale of 0 to 100): 10
Plant response rating, Morningglory ([9]; 31 g ai/ha, scale 0 to 100): 55
Morningglory plant response rating ([9]; 62 g ai/ha): 65
Morningglory plant response rating ([9]; 125 g ai/ha): 65
Plant response rating, Nutsedge, Yellow ([10]; 16 g ai/ha, scale of 0 to 100): 0
Plant response rating, Nutsedge, Yellow ([10]; 31 g ai/ha, scale 0 to 100): 0
Nutsedge, Yellow plant response rating ([10]; 62 g ai/ha): 10
Nutsedge, Yellow plant response rating ([10]; 125 g ai/ha): 30
Plant response rating, Oat, Wild ([11]; 16 g ai/ha, scale of 0 to 100): 10
Plant response rating, Oat, Wild ([11]; 31 g ai/ha, scale 0 to 100): 55
Oat, Wild plant response rating ([11]; 62 g ai/ha): 50
Oat, Wild plant response rating ([11]; 125 g ai/ha): 70
Plant response rating, Oilseed Rape ([12]; 16 g ai/ha, scale of 0 to 100): 70
Plant response rating, Oilseed Rape ([12]; 31 g ai/ha, scale 0 to 100): 85
Oilseed Rape plant response rating ([12]; 62 g ai/ha): 95
Oilseed Rape plant response rating ([12]; 125 g ai/ha): 100
Plant response rating, Ryegrass, Italian ([13]; 16 g ai/ha, scale of 0 to 100): 5
Plant response rating, Ryegrass, Italian ([13]; 31 g ai/ha, scale 0 to 100): 5
Ryegrass, Italian plant response rating ([13]; 62 g ai/ha): 30
Ryegrass, Italian plant response rating ([13]; 125 g ai/ha): 35
Plant response rating, Soybean (soybean (Glycine max); 16 g ai/ha, scale of 0 to 100): 35
Plant response rating, Soybean (soybean (Glycine max); 31 g ai/ha, scale 0 to 100): 55
Soybean plant response rating (soybean (Glycine max); 62 g ai/ha): 60
Soybean plant response rating (soybean (Glycine max); 125 g ai/ha): 55
Plant response rating, Wheat ([14]; 16 g ai/ha, scale of 0 to 100): 5
Plant response rating, Wheat ([14]; 31 g ai/ha, scale 0 to 100): 5
Wheat plant response rating ([14]; 125 g ai/ha, scale 0 to 100 (0 no effect, 100 complete control)): 35

From US11053204B2, “Pyrimidinyloxy benzene derivatives as herbicides” (FMC Corporation, priority 2015, dated 2021)
